Experimental data taken from patent US20240141440A1, “METHODS FOR DETECTING ONCOGENIC KRAS MUTATIONS” (Duke University, priority 2022, published 2024).

How the values were obtained:
Format in all cases: in vivo, A/J mice
exon 2 of Kras = assay: Maximum depth sequencing (MDS) of Kras exon 2 from tissues of mice after urethane exposure
Experimental: (§1) Urethane treatment. 6-8-week-old male and female A/J mice (JAX Stock #000646) were intraperitoneally injected daily for three days with either urethane (Sigma U2500) dissolved in PBS (1 g·kg^−1) or the vehicle PBS alone. Mice were humanely euthanized 1, 2, 3, or 4 weeks after the last injection and the lung, liver, and pancreas collected for the extraction of genomic DNA. All mouse care and experiments were performed in accordance with protocols approved by the IACUC of Duke University.
(§2) Isolation of genomic DNA. MEF cells were resuspended in lysis buffer (100 mM NaCl, 10 mM Tris pH 7.6, 25 mM EDTA pH 8.0, and 0.5% SDS in H2O, supplemented with 20 μg·ml^−1 RNase A (Sigma)). Lung, pancreas, and liver (right lobe) from A/J mice (JAX Stock #000646) were cut into fine pieces and similarly resuspended in lysis buffer. Samples were incubated at 37° C. for 1 hour. 2 μl of 800 U·ml^−1 proteinase K (NEB) was then added to each sample, the samples were vortexed, and then incubated at 55° C. overnight. Genomic DNA was isolated by phenol/chloroform extraction followed by ethanol precipitation using standard procedures and quantified using Qubit fluorometer.
Maximum depth sequencing (MDS). The MDS assay^13 was adapted for mammalian Ras genes as follows. 20-50 μg of genomic DNA was incubated with StuI (NEB) for analysis of the transcribed strand of Kras exon 1, EcoRV (NEB) and EcoRI (NEB) for analysis of the non-transcribed strand of Kras exon 1, XmnI (NEB) for analysis of the non-transcribed strand of Kras exon 2, and PleI (NEB) for analysis of the transcribed strand of Kras exon 2, or HphI (NEB) for the analysis of the non-transcribed strand of Hras exon 2. Reaction conditions were 5 units of the indicated restriction enzyme and per 1 μg DNA per 20 μl reaction (e.g., 20 μg genomic DNA, 5 μl enzyme (20 units/μl), and 40 μl 10×buffer in 400 μl reaction). Digested genomic DNA was column purified using QIAquick PCR Purification Kit following the manufacturer's protocol (Qiagen) and resuspended in ddH2O (35 μl H2O per 10 μg DNA). The barcode and adaptor were added to the target DNA by incubating purified DNA with the appropriate barcode primer (see below) for one cycle of PCR. PCR reactions were comprised of 10 μg DNA, 2.5 μl of 10 μM barcode primer, 4 μl of 2.5 mM dNTP, 10 μl of 5×buffer (NEB), and 0.5 μl Q5® Hot Start High-Fidelity DNA Polymerase (NEB) in a total volume of 50 μl. The number of PCR reactions was scaled according to the amount of DNA. PCR conditions were 98° C. for 1 minute, barcode primer annealing temperate (see below) for 15 seconds, and 72° C. for 1 minute. […] The concentration of purified product was measured with SimpliNano spectrophotometer (GE Healthcare Life Sciences). […]

exon 2 of Hras = assay: MDS of Hras exon 2 from lungs of mice after urethane exposure
Experimental: as §1, §2
(§3) Maximum depth sequencing (MDS). The MDS assay^13 was adapted for mammalian Ras genes as follows. […] The concentration of purified product was measured with SimpliNano spectrophotometer (GE Healthcare Life Sciences). […]

Kras Q61L = assay: Droplet digital PCR of Kras Q61L in lungs of mice after urethane exposure; conditions: 4 weeks post urethane exposure
Experimental: as §1
Droplet digital PCR (ddPCR). ddPCR was performed using the QX200 AutoDG Droplet Digital PCR System (Bio-Rad) following the manufacturer's protocol in a 22 μl ddPCR reaction containing 11 μl of 2×ddPCR SuperMix for probes (no dUTP) (Bio-Rad), 66 ng template DNA, 450 nM forward and reverse primers, and 250 nM FAM- and HEX-labelled probes. The primer and probe oligonucleotides were synthesized (IDT) based on sequences previously described^76 with minor modifications. The sequences for the primers are: Kras_Q61_For: 5′-[…]-3′ (SEQ ID NO: 205); and Kras_Q61_Rev: 5′-[…]-3′ (SEQ ID NO: 206). […] Plates were read on a QX200 droplet reader (Bio-Rad) and analyzed with QuantaSoft™ Analysis Pro software (version 1.0.596) (Bio-Rad) to assess the number of droplets positive for mutant DNA, wild-type DNA, both, or neither. […]

exon 1 of Kras = assay: MDS of Kras exon 1 from lungs of mice after urethane exposure
Experimental: as §1, §2, §3

In the case of `CCOC(N)=O` [urethane, ethyl carbamate], the “strand bias of mutagenesis” value (exon 2 of Kras; lung, both strands sequenced in two exons of Kras) is reported as “bias for the non-transcribed strand”, the “most prominent substitution detected by MDS” value (exon 2 of Kras; lungs, Kras exon 2, all time points, urethane but not PBS) is reported as “A>T transversion within the context of a 5′ C and 3′ any nucleotide” and the “oncogenic mutation at codon Q61 of Kras detected by MDS” value (exon 2 of Kras; lungs, non-transcribed strand of exon 2, 1-4 weeks after three daily i.p. injections, vs PBS) is reported as “oncogenic L (and to a lesser extent R) mutation at codon Q61 preferentially in the urethane, but not PBS cohort of mice, as early as 1 week after exposure”. The “CAN→CTN transversions in liver and pancreas in comparison with the lung” value (exon 2 of Kras; non-transcribed strand of exon 2 of Kras, 1 and 4 weeks after urethane exposure) was “significantly fewer CAN→CTN transversions were recovered in the liver and pancreas”, the “expansion of oncogenic mutations in Hras over time” value (exon 2 of Hras; 4 weeks vs 1 week) was “did not expand appreciably over time” and the “mutations in exon 2 of Hras” value (exon 2 of Hras; non-transcribed strand, 1 and 4 weeks after exposure) was “high prevalence of A>T followed by A>G mutations”. The “Q61L mutation frequency by droplet digital PCR” value (Kras Q61L) was “frequency similar to that determined by MDS”, the “oncogenic mutations in codon 12 or 13 of Kras” value (exon 1 of Kras; 1 week after urethane exposure) was “oncogenic mutations were rarely recovered in either codon 12 or 13” and the “oncogenic mutations in codon 12 or 13 of Kras” value (exon 1 of Kras; 4 weeks after urethane exposure) was “some G12 and G13 mutations were detected at a low frequency”.
